Results on ten compounds are retold here after PubChem BioAssay (NCI).

What all share (experiment): DTP human tumour cell line panel, 48 h
For assay [1], the system named is LOX IMVI melanoma.
In assay [2] the test system is NCI-H460 lung.
The test system of assay [3] is BT-549 breast.
For assay [4], the system named is SK-MEL-5 melanoma.
Assay [5] concerns UACC-257 melanoma.
For assay [6], the system named is MDA-MB-435.
For assay [7], the system named is HCT-15 colon.
Assay [8] has as its system RXF 393 renal.
Assay [9] concerns M14 melanoma.
Assay [10] concerns HOP-92 NSCLC.

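How tested: cells in 96-well plates exposed to compound for 48 hours at five concentrations. GI50 is the concentration that inhibits growth by half. TGI denotes the concentration required for complete inhibition of growth.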 Where a SMILES comes first, the peptide text is derived from it. Bridges are numbered along the chain shown (N, C = ends).

By GI50 is commonly meant the concentration that inhibits growth by half. One may read the TGI as the concentration at which net growth stops. Regarding `COc1cc2c(cc1OC)-c1c(c3ccc([N+](=O)[O-])cc3c(=O)n1CCCN=[N+]=[N-])C2=O`, the GI50 in [1] was 25.3 µM; in [2] it was 11.4 µM; in assay [3], over 100 µM; in [4], 42.6 µM; in assay [5], over 100 µM; in [6], over 100 µM. Moreover, the GI50 is over 100 µM in assay [7], over 100 µM in assay [8] and 20.3 µM in assay [9]. The TGI in assay [1], in assay [2], in assay [3], in assay [4], in assay [5] and in assay [6] was over 100 µM in each case. Besides, the TGI was over 100 µM in assay [7], over 100 µM in [8] and 67.3 µM in [9].
Take `COc1ccc(-c2nsc3c2NC(=O)CC3c2cccc(F)c2)cc1` (centres undefined): the GI50 in assay [1] is 6.5 µM; in assay [2] it was 3.63 µM; in [3], 7.77 µM; in [4], 2.81 µM; in [6], 0.827 µM; in [7] it was 2.41 µM. The GI50 in assay [8] was 4.04 µM; in assay [10], 3.57 µM; in [9], 3.44 µM. The TGI was over 100 µM in assay [1]; over 100 µM in [2]; over 100 µM in [3]; over 100 µM in assay [4]; 4.07 µM in [6]; over 100 µM in [7]. For the same compound, the results for the TGI in assay [8], in [10] and in assay [9] were over 100 µM, 40.6 µM and over 100 µM, respectively.
Regarding `CCC(C)C1NC(=O)C(CC(C)C)NC(=O)C(C(C)C)NC(=O)C2CSSCC(NC1=O)C(=O)N2` (centres undefined) (cyclo(CCVLI); disulfide 1-2; configuration not given here), the TGI in assay [1] was determined as 0.239 µM; in assay [2], 0.26 µM; in assay [3], 0.369 µM; in [4] it was 0.293 µM; in assay [5] it was 0.279 µM; in assay [6], 0.391 µM. In addition, the figures for the TGI in assay [7], in [10] and in assay [9] were 7.12 µM, 0.248 µM and 1.01 µM, respectively.
`Cc1cc(C(=O)CC(Cl)=C(Cl)Cl)c(Cl)cc1Cl`: the GI50 is 17.6 µM in [1]; 23.8 µM in assay [2]; 20.2 µM in [3]; 18 µM in assay [4]; 19.5 µM in [5]; 17.1 µM in assay [6]. Besides, the figures for the GI50 in assay [7], in assay [8] and in assay [9] were 20 µM, 17.8 µM and 31.7 µM, respectively. Also, the TGI in [1] was 33.8 µM; in [2] it was 90.6 µM; in [3], 44.4 µM; in [4], 39.9 µM; in assay [5] it was 44.9 µM; in [6], 43.1 µM. Further, the TGI in assay [7] was determined as 41.2 µM; in assay [8], 43.1 µM; in assay [9], 78.2 µM.
As to `COc1ccc2[nH]cc(C3(c4c[nH]c5ccc(OC)cc45)C(=O)Nc4ccc(Cl)cc43)c2c1`, the GI50 in assay [1] was 2.16 µM; in [2] it was 3.18 µM; in [3], 5.08 µM; in [4], 2.56 µM; in assay [5], 2.84 µM; in assay [7] it was 7.09 µM. For the same compound, the GI50 was 3.4 µM in [8], 2.2 µM in [10] and 4.06 µM in assay [9]. Also, the TGI in [1] is 5.33 µM; in assay [2], 10.1 µM; in [3], 56.8 µM; in assay [4], 7.57 µM; in [5] it was over 100 µM; in assay [7] it was over 100 µM. For the same compound, the TGI was 13.6 µM in assay [8], 10.3 µM in [10] and over 100 µM in [9].
Consider `COc1ccc2[nH]cc(Cc3c[nH]c4ccc(OC)cc34)c2c1`, for which the GI50 in assay [1] was 14.9 µM; in [2], 22.7 µM; in assay [3], 17.4 µM; in assay [4] it was 16.5 µM; in [5], 32.4 µM; in [6], 18.1 µM. Further, the GI50 in [7] was 14.1 µM; in [8], 28 µM; in [9], 20.3 µM. Also, the TGI worked out at 28.1 µM in assay [1]; 63.8 µM in [2]; 36.1 µM in assay [3]; 30.1 µM in assay [4]; 88.1 µM in [5]; 35.3 µM in assay [6]. Besides, the figures for the TGI in assay [7], in [8] and in assay [9] were 27.2 µM, 54.7 µM and 44 µM, respectively.
As to `CC1OC(OC2C(O)C(OCCc3ccc(O)c(O)c3)OC(CO)C2OC(=O)/C=C/c2ccc(O)c(O)c2)C(O)C(O)C1O` (centres undefined), the GI50 in [1] was 18.2 µM; in [2], over 100 µM; in assay [4], over 100 µM; in assay [5], over 100 µM; in assay [6] it was 39.7 µM; in assay [7] it was over 100 µM. In addition, the GI50 in assay [10] and in assay [9] was over 100 µM in each case. For the same compound, the TGI in assay [1] is 36 µM; in assay [2], over 100 µM; in [4], over 100 µM; in assay [5], over 100 µM; in [6] it was over 100 µM; in assay [7] it was over 100 µM. For the same compound, the TGI in assay [10] and in assay [9] was over 100 µM throughout.
On to `O=C(CC1(O)C(=O)Nc2c(Cl)cc(Cl)cc21)c1ccc([N+](=O)[O-])cc1` (centres undefined), for which the TGI in assay [1] is over 100 µM; in [2], over 100 µM; in assay [4], over 57.3 µM; in [5], over 54.3 µM; in assay [7], over 100 µM; in assay [8] it was over 100 µM. Moreover, the TGI in assay [10] was 75.5 µM; in [9], over 55.7 µM.
As for `CC(=O)CCn1[nH]c(=O)c(Cl)c(Cl)c1=O`, the concentration for total growth inhibition (TGI) in assay [1], in assay [2], in [4], in [5], in assay [7] and in [8] was over 100 µM throughout. In addition, the total growth inhibition concentration (TGI) in assay [10] and in [9] was over 100 µM throughout.
Turning to `COc1ccc(C(=O)Nc2ccn(CCOC(=O)c3ccc(OC)cc3)c(=O)n2)cc1`, the TGI in [1] is over 100 µM; in [2] it was over 100 µM; in [4], over 100 µM; in assay [5], over 100 µM; in [7], over 100 µM; in [8], 54.3 µM. For the same compound, the TGI in assay [10] and in assay [9] was over 100 µM in each case.
